Measured values reported in patent US7879861B2, “Combi-molecules having EGFR and DNA targeting properties” (priority 2005, dated 2011).
Like-named read-outs stand apart in the source and are kept apart here. Values belong to the compound of their own block, whether it stands above or below them.

Experiments:
[1] = target: T1, EGFR (Homo sapiens, UniProt P00533); experiment: EGFR kinase assay (ELISA, PGT substrate phosphorylation); format: biochemical; design: endogenous in cells; conditions: 10 min exposure; read-out: IC50, EGFR inhibitory potency, purified enzyme assay
[2] = Degradation in serum at 37° C. by HPLC; format: in vitro ADME; conditions: 24 h incubation in serum at 37° C.; release of 2 eq. of amine taken for 100%
Method: (§1) The degradation of double-arm combi-triazenes 5-9 has been investigated by HPLC. […] The rates of decomposition of bis-triazenes 7, 8 and 9 were measured by fluorescence spectroscopy by monitoring the formation of 1 (excitation: 279 and emission: 451). The determined half-lives ranged from 2 h for 7 and 8 to 3 h 20 min for 9.

[3] = system: DU145; experiment: Growth inhibition in androgen independent prostate cancer cell line; conditions: Homo sapiens
[4] = system: LNCaPerbB2; experiment: 6 day growth inhibition assay, LNCaP panel; conditions: Homo sapiens, 144 h, read-out: IC50, LNCaPerbB2 transfected cell line
[5] = Rate of decomposition by fluorescence spectroscopy (formation of amine 1); format: physicochemical; conditions: excitation 279, emission 451
Method: as §1

[6] = system: NIH3T3/neu; experiment: Growth inhibition in isogenic NIH3T3 panel (double-arm combi-triazenes); format: cell-based, mouse; conditions: for IC50: Mus musculus, NIH3T3, FIG. 14; for fold selectivity for neu transfectant: vs NIH3T3
[7] = system: NIH3T3/Her14; experiment: as above; format: cell-based, mouse; conditions: for IC50: Mus musculus, NIH3T3, FIG. 14; for fold selectivity for EGFR transfectant: vs NIH3T3
[8] = system: NIH3T3; experiment: as above; format: cell-based; conditions: Mus musculus, FIG. 14
[9] = system: MDA-MB-468 cells; experiment: Reversibility of antiproliferative effect, SRB assay; format: cell-based, human
Method: (§2) In vitro growth inhibition assay: To study the effect of the compounds on growth factor stimulated-proliferation, cells were grown to 70% of confluence in 48-well plates. […] Cell growth was measured using the sulforhodamine B (SRB) assay (24). Briefly, following drug treatment, cells were fixed using 50 μl of cold trichloroacetic acid (50%) for 60 min at 4° C., washed five times with tap water, and stained for 30 min at room temperature with SRB (0.4%) and dissolved in acetic acid (0.5%). The plates were rinsed five times with 1% acetic acid and allowed to air dry. The resulting colored residue was dissolved in 200 μl of Tris base (10 mM), and the optical density read for each well at 450 nm using a Bio-Rad microplate reader (model 2550). […] Cell growth was measured using SRB assay as described previously.

[10] = target: T2, NIH3T3neu (UniProt P04626, cells depend on it, species not given); experiment: Blockade of serum-stimulated growth, SRB assay (Table 1); format: cell-based, mouse; conditions: serum-stimulated growth; read-out: Inhibition of growth stimulation of NIH3T3neu
T2 construct: other: serum-stimulated growth
Method: (§3) In vitro growth inhibition assay: To study the effect of the compounds on growth factor stimulated-proliferation, cells were grown to 70% of confluence in 48-well plates. They were subsequently washed twice with PBS, incubated in serum-free medium for 18 h and exposed to each drug+growth factors (EGF, TGFα, PDGF or serum) for 72 h. Cell growth was measured using the sulforhodamine B (SRB) assay (24). Briefly, following drug treatment, cells were fixed using 50 μl of cold trichloroacetic acid (50%) for 60 min at 4° C., washed five times with tap water, and stained for 30 min at room temperature with SRB (0.4%) and dissolved in acetic acid (0.5%). The plates were rinsed five times with 1% acetic acid and allowed to air dry. The resulting colored residue was dissolved in 200 μl of Tris base (10 mM), and the optical density read for each well at 450 nm using a Bio-Rad microplate reader (model 2550). […] Cell growth was measured using SRB assay as described previously.

[11] = system: NIH3T3; experiment: as above; format: cell-based; conditions: Mus musculus, read-out: Inhibition of growth stimulation of NIH3T3
Method: as §3

[12] = target: T1, EGFR; experiment: EGFR kinase assay (ELISA, PGT substrate phosphorylation); format: biochemical; design: endogenous in cells; conditions: Table 1, inhibition of EGFR kinase; read-out: EGFR Binding
Method: Kinase assays: The EGFR kinase assay is similar to the one described in previously published procedures (19, 20). Nunc Maxisorp 96-well plates were incubated overnight at 37° C. with 100 μl/well of 0.25 mg/ml poly (L-glutamic acid-L-tyrosine, 4:1) PGT in PBS. Excess PGT was removed and the plate was washed three times with wash buffer (Tween 20 (0.1%) in PBS). […] The compound was added and phosphorylation initiated by the addition of ATP 50 μM. After 8 min at room temperature with constant shaking, the reaction was terminated by aspiration of the reaction mixture and rinsing the plate four times with wash buffer. […] Antibody was removed by aspiration, and the plate washed four times with wash buffer.

[13] = system: A431; experiment: Inhibition of basal growth (Table 1); format: cell-based; conditions: Homo sapiens, A-431
Method: as §3

[14] = system: NIH3T3neu; experiment: Blockade of serum-stimulated growth, SRB assay (Table 1); format: cell-based, mouse; conditions: FIG. 12, 72 h
Method: as §3

[15] = system: MDA-MB-453 cells; experiment: Reversibility of antiproliferative effect, SRB assay; format: cell-based, human
Method: as §2

[16] = system: MDA-MB-468 cells; experiment: Annexin V binding (apoptosis), flow cytometry; format: cell-based, human; conditions: for levels of apoptosis: 5 μM, 24, 48 and 72 h
Method: Annexin V Binding: Cells were grown in 6-well plates until confluence and then incubated with the compounds for 24 h, 48 and 72 h. The cells were then harvested, washed twice with PBS, and centrifuged. Cells (10^5) were treated with annexin V-FITC and propidium iodide (PI) using the Apoptosis Detection Kit (BD Bioscience Pharmingen, USA) and the supplier's protocol. Annexin V-FITC and PI binding were analyzed by flow cytometry. Data were collected using logarithmic amplification of both the FL1 (FITC) and FL2 (PI) channels. Quadrant analysis of co-ordinate dot plots was performed with CellQuest software. Unstained cells were used to adjust the photomultiplier voltage and for compensation setting adjustment in order to eliminate spectral overlap between the FL1 and FL2 signals.

[17] = system: human breast carcinoma MDA-MB-468; experiment: In vivo efficacy, MDA-MB-468 implanted in the mammary fat pad; design: species or system SCID mice
Method: In vivo studies: SCID mice were maintained as per McGill animal safety protocols. In a preliminary model, SCID mice housed in filtered cages were implanted subcutaneously (s.c.) with the human breast carcinoma MDA-MB-468 and treatment began when the tumors were palpable (8 mice/group). […] The tumor burdens were measured with a caliper and mice were weighed twice weekly. The study was later repeated with the MDA-MB-468 cells implanted in the mammary fat pad, a model that better mimics human breast carcinoma.

[18] = Water solubility; format: physicochemical
[19] = DU-145, 144 h, read-out: IC50, 6 day continued growth inhibition assay
[20] = DU-145, read-out: IC50, growth inhibition in DU145

T1 sequence (P00533 25-1210): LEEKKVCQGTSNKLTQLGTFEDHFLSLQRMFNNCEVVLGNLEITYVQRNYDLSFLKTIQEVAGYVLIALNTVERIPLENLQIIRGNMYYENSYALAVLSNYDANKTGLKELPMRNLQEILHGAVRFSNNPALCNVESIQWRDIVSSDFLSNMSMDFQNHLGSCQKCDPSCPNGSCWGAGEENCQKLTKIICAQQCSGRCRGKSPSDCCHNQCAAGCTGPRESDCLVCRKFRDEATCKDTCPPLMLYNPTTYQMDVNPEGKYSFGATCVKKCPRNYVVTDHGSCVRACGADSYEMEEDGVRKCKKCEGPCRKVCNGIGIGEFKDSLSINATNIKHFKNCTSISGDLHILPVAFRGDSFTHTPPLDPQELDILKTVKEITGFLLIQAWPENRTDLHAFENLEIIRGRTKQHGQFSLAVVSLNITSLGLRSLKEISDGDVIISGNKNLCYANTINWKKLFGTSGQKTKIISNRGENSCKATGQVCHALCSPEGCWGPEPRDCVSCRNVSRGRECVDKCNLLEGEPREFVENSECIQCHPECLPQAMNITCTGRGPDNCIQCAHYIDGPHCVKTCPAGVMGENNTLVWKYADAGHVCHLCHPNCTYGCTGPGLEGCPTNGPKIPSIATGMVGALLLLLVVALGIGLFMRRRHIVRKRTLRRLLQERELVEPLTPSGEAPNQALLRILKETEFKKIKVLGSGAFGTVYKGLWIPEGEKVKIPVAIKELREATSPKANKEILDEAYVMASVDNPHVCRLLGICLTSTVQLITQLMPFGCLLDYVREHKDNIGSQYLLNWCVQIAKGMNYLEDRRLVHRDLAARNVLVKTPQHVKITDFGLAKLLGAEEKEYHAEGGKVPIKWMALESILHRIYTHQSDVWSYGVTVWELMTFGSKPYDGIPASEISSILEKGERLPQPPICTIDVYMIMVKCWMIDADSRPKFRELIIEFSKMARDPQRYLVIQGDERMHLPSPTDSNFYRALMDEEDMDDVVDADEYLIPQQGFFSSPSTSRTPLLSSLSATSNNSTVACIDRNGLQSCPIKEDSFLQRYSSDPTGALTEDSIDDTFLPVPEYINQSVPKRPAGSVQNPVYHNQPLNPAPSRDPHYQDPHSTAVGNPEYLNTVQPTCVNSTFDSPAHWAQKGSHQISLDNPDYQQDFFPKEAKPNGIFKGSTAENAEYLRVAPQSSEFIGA

Compound: Clc1cccc(Nc2ncnc3ccc(N=NNCc4ccccc4CNN=Nc4ccc5ncnc(Nc6cccc(Cl)c6)c5c4)cc23)c1 [Double-arm combi-triazene 5]
- IC50 [1]: 7000 nM
- release of parent amine 1 [2]: negligible quantities
- IC50 [3, 19]: 12000 nM
- IC50 [4]: 18 µM

Compound: Clc1cccc(Nc2ncnc3ccc(N=NNCc4ccc(CNN=Nc5ccc6ncnc(Nc7cccc(Cl)c7)c6c5)cc4)cc23)c1 [Double-arm combi-triazene 6]
- IC50 [1]: > 10000 nM
- IC50 [3, 19]: 35000 nM
- IC50 [4]: 37 µM

Compound: Clc1cccc(Nc2ncnc3ccc(N=NNCCN4CCN(CCNN=Nc5ccc6ncnc(Nc7cccc(Cl)c7)c6c5)CC4)cc23)c1 [Double-arm combi-triazene 7]
- half-life [5]: 120 min
- IC50 [1]: 1000 nM
- IC50 [6]: 400 nM
- fold selectivity for neu transfectant [6]: 110 fold
- IC50 [7]: 500 nM
- fold selectivity for EGFR transfectant [7]: 88 fold
- IC50 [8]: 44000 nM
- IC50 [3, 19]: 1800 nM
- IC50 [3, 20]: 2800 nM
- IC50 [4]: 9 µM

Compound: CN(CCNN=Nc1ccc2ncnc(Nc3cccc(Cl)c3)c2c1)CCN(C)CCNN=Nc1ccc2ncnc(Nc3cccc(Cl)c3)c2c1 [Double-arm combi-triazene 8]
- half-life [5]: 120 min
- IC50 [1]: 50 nM
- IC50 [6]: 20 nM
- IC50 [7]: 20 nM
- fold more active ([7]; compared with double-arm combi-triazene 9): 20 fold
- IC50 [8]: 100 nM
- IC50 [3, 19]: 3200 nM
- IC50 [3, 20]: 1000 nM
- IC50 [4]: 6 µM

Compound: CN(CCNN=Nc1ccc2ncnc(Nc3cccc(Cl)c3)c2c1)CCNN=Nc1ccc2ncnc(Nc3cccc(Cl)c3)c2c1 [Double-arm combi-triazene 9]
- IC50 [1]: 3 nM
- fold selectivity for neu transfectant [6]: 7 fold
- IC50 [7]: 500 nM
- fold selectivity for EGFR transfectant [7]: 4 fold
- IC50 [8]: 2300 nM
- IC50 [3, 19]: 2300 nM
- IC50 [3, 20]: 2600 nM
- IC50 [4]: 11 µM

Compound: Nc1ccc2ncnc(Nc3cccc(Cl)c3)c2c1 [FD105, reference compound]
- IC50 ([9]; MDA-MB-468, SRB, read-out: IC50, growth inhibition, 120 h continuous exposure): 23.6 µM
- IC50 ([9]; read-out: IC50, growth inhibition, 2 h exposure followed by 120 h recovery, MDA-MB-468, SRB): 192 µM

Compound: C=CC(=O)Nc1ccc2ncnc(Nc3cccc(Br)c3)c2c1 [PD168393, reference compound]
- IC50 ([15]; Homo sapiens, MDA-MB-453, 120 h, MDA-MB-453, SRB, read-out: IC50, growth inhibition, 120 h continuous exposure): 1.81 µM
- IC50 ([15]; Homo sapiens, MDA-MB-453, read-out: IC50, growth inhibition, 2 h exposure followed by 120 h recovery, MDA-MB-453, SRB): 10.3 µM
- IC50 ([15]; MDA-MB-453, SRB, read-out: IC50, growth inhibition, 120 h continuous exposure): 1.71 µM
- IC50 ([15]; read-out: IC50, growth inhibition, 2 h exposure followed by 120 h recovery, MDA-MB-453, SRB): 11.5 µM
- levels of apoptosis [16]: barely detectable levels of apoptosis

Compound: Nc1ccc2ncnc(Nc3cccc(Br)c3)c2c1 [ZR01, reference compound]
- levels of apoptosis [16]: barely detectable levels of apoptosis

Compound: ClCCNc1ccc2ncnc(Nc3cccc(Cl)c3)c2c1 [ZR2003]
- IC50 ([9]; Homo sapiens, MDA-MB-468, 120 h, read-out: IC50, growth inhibition, 120 h continuous exposure, MDA-MB-468, SRB): 0.51 µM
- IC50 ([9]; Homo sapiens, MDA-MB-468, read-out: IC50, growth inhibition, 2 h exposure followed by 120 h recovery, MDA-MB-468, SRB): 4.81 µM
- in vivo antiproliferative activity ([17]; 50 mg/kg i.p. every 3-4 days, mammary fat pad): strong antiproliferative activity
- in vivo potency compared with ZR2002 ([17]; mouse, in vivo): significantly more potent
- in vivo potency compared with FD105 ([17]; same dose, p<0.05): significant superior potency
- concentration at which detectable levels of apoptosis start [16]: 12 µM
- cell death by apoptosis compared with FD105 ([16]; 12 μM, 48 h): significantly higher levels of cell death by apoptosis
- water solubility (in words) [18]: more hydro-soluble

Continued, in another order:

- GI50 [10]: 43300 nM
- IC50 [12]: 36 nM
- IC50 [13]: 38.1 µM
Compound: CN(CCN(C)N=Nc1ccc2ncnc(Nc3cccc(Cl)c3)c2c1)CCN(C)N=Nc1ccc2ncnc(Nc3cccc(Cl)c3)c2c1 [JCF29]
- IC50 [11]: 186 µM

- GI50 [10]: 23100 nM
- IC50 [12]: 290 nM
Compound: CN(CCN(C)N=Nc1ccc2ncnc(Nc3cccc(Cl)c3)c2c1)N=Nc1ccc2ncnc(Nc3cccc(Cl)c3)c2c1 [JFC16]
- IC50 [11]: 137 µM

- GI50 [10]: 1250 nM
- IC50 [12]: 14 nM
- IC50 [13]: 18.9 µM
Compound: CN(C)CCN(C)N=Nc1ccc2ncnc(Nc3cccc(Cl)c3)c2c1 [JFC30]
- IC50 [11]: 13.9 µM

- GI50 [10]: < 750 nM
- IC50 [12]: 3 nM
- IC50 [13]: 4.79 µM
Compound: CN(CCOCCN(C)N=Nc1ccc2ncnc(Nc3cccc(Cl)c3)c2c1)N=Nc1ccc2ncnc(Nc3cccc(Cl)c3)c2c1 [JFC31]
- selectivity for NIH3T3 HER2 transfected cells in isogenic model [14]: significant selectivity
- IC50 [11]: 4.65 µM

- GI50 [10]: 1650 nM
- IC50 [12]: 13 nM
- IC50 [13]: 23.4 µM
Compound: COCCN(C)N=Nc1ccc2ncnc(Nc3cccc(Cl)c3)c2c1 [JFC32]
- IC50 [11]: 112 µM
